The test system of the series is rodent carcinogenicity bioassays, tumor incidence. Put plainly: CCRIS carcinogenicity studies. A digest of the protocol:
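Archive of carcinogenicity, mutagenicity, tumor promotion and tumor inhibition results drawn from journals, NCI reports and other sources, expert-reviewed; covers 1985-2011 and is no longer updated.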

Active and inactive are the calls of the source. No rule for the calls is given here.

As to `C=C/C=N/O`, the carcinogen call reads like this: (Species: HAMSTER, Strain/Sex: SYRIAN/MALE, Route: GAVAGE, Dose: 0, 2 MG/WK FOR 53 WK (STUDY DURATION: 92 WK)) “inactive; negative”; (Species: RAT, Strain/Sex: F344/FEMALE, Route: ORAL, Dose: 0, 320 MG/L IN DRINKING WATER 5 D/WK FOR 100 WK (STUDY DURATION: 130 WK)) “inactive; negative”; (Species: RAT, Strain/Sex: F344/FEMALE, Route: ORAL, Dose: 0, 800 MG/L IN DRINKING WATER 5 D/WK FOR 30 WK (STUDY DURATION: 130 WK)) “inactive; negative”; (Species: RAT, Strain/Sex: F344/MALE, Route: ORAL, Dose: 0, 320 MG/L IN DRINKING WATER 5 D/WK FOR 100 WK (STUDY DURATION: 130 WK)) “inactive; negative”; (Species: RAT, Strain/Sex: F344/MALE, Route: ORAL, Dose: 0, 800 MG/L IN DRINKING WATER 5 D/WK FOR 30 WK (STUDY DURATION: 130 WK)) “inactive; negative”.
On to `OC(Cn1cncn1)(Cn1cncn1)c1ccc(F)cc1F`, for which the carcinogen call is “inactive; negative” (Species: RAT, Strain/Sex: SPRAGUE-DAWLEY/FEMALE, Route: ORAL, Dose: 0, 2.5, 5, 10 MG/KG IN DIET FOR 24 MO (STUDY DURATION: 24 MO), Dose: 0, 2.5, 5, 10 MG/KG IN DIET FOR 24 MO (STUDY DURATION: 24 MO)) and “active; positive” (Species: RAT, Strain/Sex: SPRAGUE-DAWLEY/MALE, Route: ORAL, Dose: 0, 2.5, 5, 10 MG/KG IN DIET FOR 24 MO (STUDY DURATION: 24 MO), Dose: 0, 2.5, 5, 10 MG/KG IN DIET FOR 24 MO (STUDY DURATION: 24 MO), Tumor Site: Type of Lesion: LIVER: HEPATOCELLULAR ADENOMA).
For the compound `CCCCC(CC)COC(=O)c1ccc(C(=O)OCC(CC)CCCC)cc1` (stereo not drawn), the carcinogen call reads like this: (Species: Rat, Strain/Sex: Fischer 344/Female, Route: Oral, Dose: 0, 1500, 6000, 12,000 ppm in diet for 104 wk (average daily dose 0, 102, 418, 901 mg/kg/day), Dose: 0, 1500, 6000, 12,000 ppm in diet for 104 wk (average daily dose 0, 102, 418, 901 mg/kg/day)) “inactive; negative”; (Species: Rat, Strain/Sex: Fischer 344/Male, Route: Oral, Dose: 0, 1500, 6000, 12,000 ppm in diet for 104 wk (average daily dose 0, 79, 324, 666 mg/kg/day), Dose: 0, 1500, 6000, 12,000 ppm in diet for 104 wk (average daily dose 0, 79, 324, 666 mg/kg/day)) “inactive; negative”.
On to `OCCN(CCO)CCO`, for which the carcinogen call runs as follows: (Species: MOUSE, Route: ORAL, Tumor Site: Type of Lesion: LYMPHATIC SYSTEM) “active; positive”; (Species: MOUSE, Strain/Sex: B6C3F1/FEMALE, Route: DERMAL, Dose: 0, 100, 300, 1000 MG/KG 5 D/WK FOR 104 -105 WKS (STUDY DURATION: 105 WKS), Dose: 0, 100, 300, 1000 MG/KG 5 D/WK FOR 104 -105 WKS (STUDY DURATION: 105 WKS), Tumor Site: Type of Lesion: LIVER: HEPATOCELLULAR ADENOMA OR CARCINOMA) “active; positive”; (Species: MOUSE, Strain/Sex: B6C3F1/FEMALE, Route: ORAL, Dose: 0, 1, 2% IN DRINKING WATER FOR 82 WK (STUDY DURATION: 82 WK), Dose: 0, 1, 2% IN DRINKING WATER FOR 82 WK (STUDY DURATION: 82 WK)) “inactive; negative”; (Species: MOUSE, Strain/Sex: B6C3F1/MALE, Route: DERMAL, Dose: 0, 200, 630, 2000 MG/KG 5D/WK FOR 104 WKS (STUDY DURATION: 104 WKS), Dose: 0, 200, 630, 2000 MG/KG 5D/WK FOR 104 WKS (STUDY DURATION: 104 WKS), Tumor Site: Type of Lesion: LIVER: HEMANGIOSARCOMA AT MEDIAN DOSE LEVEL) “equivocal; p=0.047 at median dose for hemangiosarcoma”; (Species: MOUSE, Strain/Sex: B6C3F1/MALE, Route: ORAL, Dose: 0, 1, 2% IN DRINKING WATER FOR 82 WK (STUDY DURATION: 82 WK), Dose: 0, 1, 2% IN DRINKING WATER FOR 82 WK (STUDY DURATION: 82 WK)) “inactive; negative”; (Species: RAT, Strain/Sex: F344/FEMALE, Route: DERMAL, Dose: 0, 32, 63, 125 MG/KG 5 D/WK FOR 103 WK (STUDY DURATION: 103 WK), Dose: 0, 32, 63, 125 MG/KG 5 D/WK FOR 103 WK (STUDY DURATION: 103 WK)) “inactive; negative”. Also, for the setting “Species: RAT, Strain/Sex: F344/MALE, Route: DERMAL, Dose: 0, 32, 63, 125 MG/KG 5 D/WK FOR 103 WK (STUDY DURATION: 103 WK), Dose: 0, 32, 63, 125 MG/KG 5 D/WK FOR 103 WK (STUDY DURATION: 103 WK), Tumor Site: Type of Lesion: KIDNEY: RENAL TUBULE ADENOMA”, the carcinogen call is reported as “equivocal”.
As for `CC(F)(Cl)Cl`, the carcinogen call is, setting by setting: (Species: RAT, Strain/Sex: SPRAGUE-DAWLEY/FEMALE, Route: INHALATION, Dose: 0, 1500, 5000, 20000 PPM 6 HR/D 5 D/WK FOR 104 WK (THE HIGH EXPOSURE LEVEL WAS INCREASED FROM 15000 PPM TO 20000 PPM AFT, Dose: 0, 1500, 5000, 20000 PPM 6 HR/D 5 D/WK FOR 104 WK (THE HIGH EXPOSURE LEVEL WAS INCREASED FROM 15000 PPM TO 20000 PPM AFT) “inactive; negative”; (Species: RAT, Strain/Sex: SPRAGUE-DAWLEY/MALE, Route: INHALATION, Dose: 0, 1500, 5000, 20000 PPM 6 HR/D 5 D/WK FOR 104 WK (THE HIGH EXPOSURE LEVEL WAS INCREASED FROM 15000 PPM TO 20000 PPM AFT, Dose: 0, 1500, 5000, 20000 PPM 6 HR/D 5 D/WK FOR 104 WK (THE HIGH EXPOSURE LEVEL WAS INCREASED FROM 15000 PPM TO 20000 PPM AFT, Tumor Site: Type of Lesion: TESTES: INTERSTITIAL CELL ADENOMA) “active; positive”.
Take `CCCCNC(=O)OCC#CI`: the carcinogen call is, setting by setting: (Species: Mouse, Strain/Sex: CD-1/Female (50/Group), Route: Oral, Dose: 0, 20, 50, 150 mg/kg/day of 97% 3-iodo-2-propynyl butyl carbamate in diet for 78 wk, study duration 78 wk, Dose: 0, 20, 50, 150 mg/kg/day of 97% 3-iodo-2-propynyl butyl carbamate in diet for 78 wk, study duration 78 wk) “inactive; negative”; (Species: Mouse, Strain/Sex: CD-1/Male (50/Group), Route: Oral, Dose: 0, 20, 50, 150 mg/kg/day of 97% 3-iodo-2-propynyl butyl carbamate in diet for 78 wk, study duration 78 wk, Dose: 0, 20, 50, 150 mg/kg/day of 97% 3-iodo-2-propynyl butyl carbamate in diet for 78 wk, study duration 78 wk) “inactive; negative”; (Species: Rat, Strain/Sex: Sprague-Dawley/Female (50/group), Route: Oral, Dose: 0, 20, 40, 80 mg/kg/day of 97% 3-iodo-2-propynyl butyl carbamate in diet for 104 wk, study duration 104 wk, Dose: 0, 20, 40, 80 mg/kg/day of 97% 3-iodo-2-propynyl butyl carbamate in diet for 104 wk, study duration 104 wk) “inactive; negative”; (Species: Rat, Strain/Sex: Sprague-Dawley/Male (50/group), Route: Oral, Dose: 0, 20, 40, 80 mg/kg/day of 97% 3-iodo-2-propynyl butyl carbamate in diet for 104 wk, study duration 104 wk, Dose: 0, 20, 40, 80 mg/kg/day of 97% 3-iodo-2-propynyl butyl carbamate in diet for 104 wk, study duration 104 wk) “inactive; negative”.
In the case of `c1ccc(Nc2ccc3ccccc3c2)cc1`, the carcinogen call was “equivocal” (Species: MOUSE, Strain/Sex: B6C3F1/FEMALE, Route: ORAL, Dose: 0, 2500, 5000 PPM IN DIET FOR 103 WK (STUDY DURATION: 104 WK), Dose: 0, 2500, 5000 PPM IN DIET FOR 103 WK (STUDY DURATION: 104 WK), Tumor Site: Type of Lesion: KIDNEY: RENAL TUBULAR CELL ADENOMA, RENAL TUBULAR CELL ADENOCARCINOMA); “inactive; negative” (Species: MOUSE, Strain/Sex: B6C3F1/MALE, Route: ORAL, Dose: 0, 2500, 5000 PPM IN DIET FOR 103 WK (STUDY DURATION: 104 WK), Dose: 0, 2500, 5000 PPM IN DIET FOR 103 WK (STUDY DURATION: 104 WK)); “inactive; negative” (Species: RAT, Strain/Sex: F344/FEMALE, Route: ORAL, Dose: 0, 2500, 5000 PPM IN DIET FOR 103 WK (STUDY DURATION: 104 WK), Dose: 0, 2500, 5000 PPM IN DIET FOR 103 WK (STUDY DURATION: 104 WK)); “inactive; negative” (Species: RAT, Strain/Sex: F344/MALE, Route: ORAL, Dose: 0, 2500, 5000 PPM IN DIET FOR 103 WK (STUDY DURATION: 104 WK), Dose: 0, 2500, 5000 PPM IN DIET FOR 103 WK (STUDY DURATION: 104 WK)); “inactive; negative” (Species: RAT, Strain/Sex: SPRAGUE-DAWLEY/FEMALE, Route: GAVAGE, Dose: 0, 600 MG/KG BW 2/WK FOR DURATION OF STUDY (STUDY DURATION: LIFETIME)); “inactive; negative” (Species: RAT, Strain/Sex: SPRAGUE-DAWLEY/MALE, Route: GAVAGE, Dose: 0, 600 MG/KG BW 2/WK FOR DURATION OF STUDY (STUDY DURATION: LIFETIME)).

For the origin of these results see PubChem BioAssay AID1259411 (Chemical Carcinogenesis Research Information System (CCRIS), 2018).
